Structures can show the parent of a compound that is named as a salt.
First: CN(C)CCCCNC(=O)c1ccccc1-c1nnc(CSCCOc2ccccc2)o1 [Example 63, N-(4-dimethylamino-butyl)-2-[5-(2-phenoxy-ethylsulfanylmethyl)-[1,3,4]oxadiazol-2-yl]-benzamide]
Second: CN(C)CCCCCNC(=O)c1ccc(-c2nnc(CSCCOc3ccccc3)o2)cc1 [Example 56, N-(5-dimethylaminopentyl)-4-[5-(2-phenoxyethylsulfanylmethyl)-[1,3,4]oxadiazol-2-yl]-benzamide]
The melting point of the first is lower: 62 to 65 °C for the first, 83 to 89 °C for the second.

First: CN(C)CCCOc1ccc(-c2nnc(CSCCOc3cccc(OC(F)(F)F)c3)o2)cc1 [Example 276, [3-(4-{5-[2-(3-trifluoromethoxy-phenoxy)-ethylsulfanylmethyl]-[1,3,4]oxadiazol-2-yl}-phenoxy)-propyl]-dimethyl-amine]
Second: CN(C)CCCOc1ccc(-c2nnc(CSCCOc3cccc4ccccc34)o2)cc1 [Example 278, [3-(4-{5-[2-(1-naphthoxy)-ethylsulfanylmethyl]-[1,3,4]oxadiazol-2-yl}-phenoxy)-propyl]-dimethyl-amine]
The melting point of the first is lower: 46 to 46.5 °C for the first, 101 to 102 °C for the second.

Compared with `CN(C)CCCNC(=O)c1ccc(-c2nnc(CSCCCOc3ccccc3)o2)cc1` [Example 47, N-(3-dimethylaminopropyl)-4-[5-(3-phenoxypropylsulfanylmethyl)-[1,3,4]oxadiazol-2-yl]-benzamide], `CN(C)CCCNC(=O)c1cccc(-c2nnc(CSCCOc3ccccc3)o2)c1` [Example 62, N-(3-dimethylamino-propyl)-3-[5-(2-phenoxy-ethylsulfanylmethyl)-[1,3,4]oxadiazol-2-yl]-benzamide] is higher in melting point: 77 to 80 °C for the first, 88 to 90 °C for the second.

Compared with `c1ccc(OCCSCc2nnc(-c3ccc(OCCCN4CCSCC4)cc3)o2)cc1` [Example 82, 4-(3-{4-[5-(2-phenoxy-ethylsulfanylmethyl)-[1,3,4]oxadiazol-2-yl]-phenoxy}-propyl)-thiomorpholine], `c1ccc(OCCSCc2nnc(-c3ccc(OCCN4CCSCC4)cc3)o2)cc1` [Example 90, 4-(2-{4-[5-(2-phenoxy-ethylsulfanylmethyl)-[1,3,4]oxadiazol-2-yl]-phenoxy}-ethyl)-thiomorpholine] is lower in melting point: 85 °C for the first, 60 °C for the second.

Compared with `c1ccc(OCCSCc2nnc(-c3ccc(OCCN4CCOCC4)cc3)o2)cc1` [Example 74, 4-(2-{4-[5-(2-phenoxy-ethylsulfanylmethyl)-[1,3,4]oxadiazol-2-yl]-phenoxy}-ethyl)-morpholine], `c1ccc(OCCSCc2nnc(-c3ccc(OCCCN4CCC4)cc3)o2)cc1` [Example 263, 2-[4-(3-azetidin-1-yl-propoxy)-phenyl]-5-(2-phenoxy-ethylsulfanylmethyl)-[1,3,4]oxadiazole] is lower in melting point: 70 to 72 °C for the first, 60 °C for the second.

First: O=C(O)C(=O)O.c1ccc(OCCSCc2ncc(-c3ccc(OCCCN4CCCCCCC4)cc3)o2)cc1 [Example 267, 1-(3-{4-[2-(2-phenoxy-ethylsulfanylmethyl)-oxazol-5-yl]-phenoxy}-propyl)-azocane oxalic acid salt]
Second: c1ccc(OCCSCc2ncc(-c3ccc(OCCN4CCCCCC4)cc3)o2)cc1 [Example 265, 1-(2-{4-[2-(2-phenoxy-ethylsulfanylmethyl)-oxazol-5-yl]-phenoxy}-ethyl)-azepane]
The melting point of the first is higher: 89 to 94 °C for the first, 35 to 38 °C for the second.

Compared with `CN(C)CCCOc1ccc(-c2nnc(-c3ccc(Oc4ccccc4)cc3)o2)cc1` [Example 248, Dimethyl-(3-{4-[5-(4-phenoxy-phenyl)-[1,3,4]oxadiazol-2-yl]-phenoxy}-propyl)-amine], `CN(C)CCCOc1ccc(-c2nnc(-c3ccc(-c4ccccc4)cc3)o2)cc1` [Example 58, {3-[4-(5-biphenyl-4-yl-[1,3,4]oxadiazol-2-yl)-phenoxy]-propyl}-dimethylamine] is higher in melting point: 95 °C for the first, 130 to 132 °C for the second.

First: CN(C)CCCNc1ccc(-c2nnc(CSCCOc3ccccc3)o2)cn1 [Example 259, N,N-Dimethyl-N′-{5-[5-(2-phenoxy-ethylsulfanylmethyl)-[1,3,4]oxadiazol-2-yl]-pyridin-2-yl}-propane-1,3-diamine]
Second: CN(C)CCCNC(=S)Nc1ccc(-c2nnc(CSCCOc3ccccc3)o2)cc1 [Example 118, 1-(3-dimethylamino-propyl)-3-{4-[5-(2-phenoxy-ethylsulfanylmethyl)-[1,3,4]oxadiazol-2-yl]-phenyl}-thiourea]
The melting point of the first is lower: 94 to 96 °C for the first, 136 to 139 °C for the second.

First: C(=C\c1ccc(-c2cnc(CSCCOc3ccccc3)o2)cc1)/CN1CCCC1 [Example 268, 2-(2-phenoxy-ethylsulfanylmethyl)-5-[4-(3-pyrrolidin-1-yl-propenyl)-phenyl]-oxazole]
Second: c1ccc(OCCSCc2nnc(-c3ccc(OCCCN4CCCCC4)cc3)o2)cc1 [Example 75, 1-(3-{4-[5-(2-phenoxy-ethylsulfanylmethyl)-[1,3,4]oxadiazol-2-yl]-phenoxy}-propyl)-piperidine]
The melting point of the first is higher: 73 to 75 °C for the first, 65 °C for the second.

First: CN1CCN(c2ccc(-c3nnc(CSCCOc4ccccc4)o3)cn2)CC1.O=C(O)/C=C\C(=O)O [Example 293, 1-methyl-4-{5-[5-(2-phenoxy-ethylsulfanylmethyl)-[1,3,4]oxadiazol-2-yl]-pyridin-2-yl}-piperazine; maleic acid salt]
Second: CN1CCC(Oc2ccc(-c3nnc(CSCCOc4ccccc4)o3)cc2)CC1.O=C(O)/C=C\C(=O)O [Example 291, 1-methyl-4-{4-[5-(2-phenoxy-ethylsulfanylmethyl)-[1,3,4]oxadiazol-2-yl]-phenoxy}-piperidine; maleic acid salt]
The melting point of the first is lower: 146 to 147 °C for the first, 149 to 150 °C for the second.

First: COCCSCc1nnc(-c2ccc(OCCCN(C)C)cc2)o1 (as salt: maleate) [Example 281, (3-{4-[5-(2-methoxy-ethylsulfanylmethyl)-[1,3,4]oxadiazol-2-yl]-phenoxy}-propyl)-dimethyl-amine]
Second: CN(C)CCCOc1ccc(-c2nnc(CSCCCOc3ccccc3)o2)cc1.O=C(O)C(=O)O [Example 49, dimethyl-(3-{4-[5-(3-phenoxypropylsulfanylmethyl)-[1,3,4]oxadiazol-2-yl]-phenoxy}-propyl)-amine, oxalic acid salt]
The melting point of the first is lower: 97.5 to 99 °C for the first, 131 to 133 °C for the second.

Compared with `c1ccc(OCCSCc2nnc(-c3ccc(OCc4ccncc4)cc3)o2)cc1` [Example 98, 4-{4-[5-(2-phenoxy-ethylsulfanylmethyl)-[1,3,4]oxadiazol-2-yl]-phenoxymethyl}-pyridine], `CNCCCOc1ccc(-c2nnc(CSCCOc3ccccc3)o2)cc1` [Example 77, methyl-(3-{4-[5-(2-phenoxy-ethylsulfanylmethyl)-[1,3,4]oxadiazol-2-yl]-phenoxy}-propyl)-amine] is lower in melting point: 80 to 90 °C for the first, 40 to 44 °C for the second.

First: O=C1CCN(CCCOc2ccc(-c3nnc(CSCCOc4ccccc4)o3)cc2)CC1 [Example 260, 1-(3-{4-[5-(2-Phenoxy-ethylsulfanylmethyl)-[1,3,4]oxadiazol-2-yl]-phenoxy}-propyl)-piperidin-4-one]
Second: CN1CCCC1CCOc1ccc(-c2nnc(CSCCOc3ccccc3)o2)cc1 (stereo not drawn) [Example 96, 2-{4-[2-(1-methyl-pyrrolidin-2-yl)-ethoxy]-phenyl}-5-(2-phenoxy-ethylsulfanylmethyl)-[1,3,4]oxadiazole]
The melting point of the first is higher: 55 to 57 °C for the first, 46 to 50 °C for the second.

Compared with `CN(C)CCCOc1ccc(-c2nnc(CCOCCOc3ccccc3)o2)cc1` (as salt: oxalate) [Example 215, Dimethyl-[3-(4-{5-[2-(2-phenxoyethoxy)ethyl]-[1,3,4]oxadiazol-2-yl}phenoxy)propyl]amine], `CCN(CC)CCCOc1ccc(-c2nnc(CSCCOc3ccccc3)o2)cc1` [Example 78, diethyl-(3-{4-[5-(2-phenoxy-ethylsulfanylmethyl)-[1,3,4]oxadiazol-2-yl]-phenoxy}-propyl)-amine] is lower in melting point: 116 to 118 °C for the first, 27 to 31 °C for the second.

First: O=C(NCCN1CCCC1)Nc1ccc(-c2cnc(COCc3cc4ccccc4o3)o2)cc1 [Example 255, 1-{4-[2-(Benzofuran-2-ylmethoxymethyl)-oxazol-5-yl]-phenyl}-3-(2-pyrrolidin-1-yl-ethyl)-urea]
Second: CN(C)CCNC(=O)Nc1ccc(-c2cnc(COCc3cc4ccccc4o3)o2)cc1 [Example 254, 1-{4-[2-(benzofuran-2-ylmethoxymethyl)-oxazol-5-yl]-phenyl}-3-(2-dimethylamino-ethyl)-urea]
The melting point of the first is lower: 124 to 126 °C for the first, 150 to 154 °C for the second.

First: Nc1ccc(-c2nnc(CSCCOc3ccccc3)o2)cc1 [Example 116, 4-[5-(2-phenoxy-ethylsulfanylmethyl)-[1,3,4]oxadiazol-2-yl]-phenylamine]
Second: CC(C)N(CCCOc1ccc(-c2nnc(CSCCOc3ccccc3)o2)cc1)C(C)C [Example 261, diisopropyl-(3-{4-[5-(2-phenoxy-ethylsulfanylmethyl)-[1,3,4]oxadiazol-2-yl]-phenoxy}-propyl)-amine]
The melting point of the first is higher: 126 to 130 °C for the first, 30 to 33 °C for the second.

First: c1csc(SCc2nnc(-c3ccc(OCCCN4CCCCC4)cc3)o2)n1 (as salt: hydrochloride) [Example 226, 1-(3-{4-[5-(thiazol-2-ylsulfanylmethyl)-[1,3,4]oxadiazol-2-yl]phenoxy}propyl)piperdine]
Second: O=C(NCCN1CCCCC1)Nc1ccc(-c2nnc(CSCCOc3ccccc3)o2)cc1 [Example 107, 1-{4-[5-(2-phenoxy-ethylsulfanylmethyl)-[1,3,4]oxadiazol-2-yl]-3-phenyl}-3-(2-piperidin-1-yl-ethyl)-urea]
The melting point of the first is higher: 174 to 176 °C for the first, 126 to 128 °C for the second.

Compared with `CN(C)CCCOc1ccc(-c2nnc(Cc3ccc(Oc4ccccc4)cc3)o2)cc1.O=C(O)C(=O)O` [Example 269, Dimethyl-(3-{4-[5-(4-phenoxy-benzyl)-[1,3,4]oxadiazol-2-yl]-phenoxy}-propyl)-amine, oxalic acid salt], `CN(C)CCCOc1ccc(-c2nnc(CSCCOc3ccccc3)n2Cc2ccccc2)cc1.O=C(O)C(=O)O` [Example 246, (3-{4-[4-benzyl-5-(2-phenoxyethylsulfanylmethyl)-4H-[1,2,4]triazol-3-yl]-phenoxy}-propyl)-dimethyl-amine, oxalic acid salt] is lower in melting point: 156 to 158 °C for the first, 88 to 92 °C for the second.
